Patent US8030498B2, “Benzoylpyrazole compounds and herbicides containing them” (Ishihara Sangyo Kaisha, Ltd., priority 2005, dated 2011)

How the values were obtained:
[1] = test system: barnyardgrass (Echinochloa crus-galli L.); experiment: Test Example 1: foliar treatment, growth inhibition rate, barnyardgrass; assay type: in vivo; conditions: visually observed 17th to 23rd day after application
Description: (§1) Upland field soil was put into a 1/170,000 hectare pot, and seeds of various plants were sown. When the respective plants reached predetermined leaf stage ((1) barnyardgrass (Echinochloa crus-galli L.); 0.8 to 2.5 leaf stage, (2) crabgrass (Digitaria sanguinalis L.): 0.5 to 3.0 leaf stage, (3) greenfoxtail (Setaria viridis L.): 1.0 to 3.0 leaf stage, (4) redroot pigweed (Amaranthus retroflexus L.): cotyledon stage to 2.0 leaf stage, (5) prickly sida (Sida spinosa L.): cotyledon stage to 1.1 leaf stage, (6) velvetleaf (Abutilon theophrasti MEDIC.): cotyledon stage to 1.5 leaf stage, (7) rice (Oryza sativa L.): 1.0 to 2.5 leaf stage, (8) wheat (Triticum spp.): 1.7 to 3.4 leaf stage, (9) corn (Zea mays L.): 2.0 to 3.5 leaf stage, and (10) soybean (Glycine max Merr.): primary leaf stage to 0.3 leaf stage), wettable powders or emulsifiable concentrates of the compounds of the present invention prepared in accordance with a conventional preparation method, were weighed so that the active ingredients became the prescribed amounts, and diluted with water in an amount corresponding to 500 liter per 1 hectare. 0.1 vol % of an agricultural spreader was further added to the respective diluted liquids, followed by foliar treatment with a small sprayer.
(§2) On the 17th to 23rd day after application, the state of growth of the respective plants was visually observed, and the herbicidal effect was evaluated in accordance with a growth inhibition rate (%) of 0 (equivalent to the non-treated area) to 100% (complete kill).

rice (Oryza sativa L.) = experiment: Test Example 1: foliar treatment, growth inhibition rate, rice; assay type: in vivo; conditions: visually observed 17th to 23rd day after application
Description: as §1, §2

[2] = test system: crabgrass (Digitaria sanguinalis L.); experiment: Test Example 1: foliar treatment, growth inhibition rate, crabgrass; assay type: in vivo; conditions: visually observed 17th to 23rd day after application
Description: as §1, §2

corn = experiment: Test Example 2: soil application on the day after sowing, growth inhibition rate, corn; assay type: in vivo, Zea mays L.; conditions: 250 g/ha active ingredient, observed on 19th to 24th day
Description: (§3) Upland field soil was put into a 1/170,000 hectare pot, and seeds of various plants (barnyardgrass, crabgrass, greenfoxtail, redroot pigweed, prickly sida, velvetleaf, rice, wheat, corn and soybean) were sown. On the day after sowing, wettable powders or emulsifiable concentrates of the compounds of the present invention prepared in accordance with a conventional preparation method, were weighed so that the active ingredients became the prescribed amounts, and diluted with water in an amount corresponding to 500 liter per 1 hectare, followed by soil application with a small sprayer. On the 19th to 24th day after the application, the state of growth of the respective plants was visually observed, and the herbicidal effect was evaluated in accordance with a growth inhibition rate (%) of from 0 (equivalent to the non-treated area) to 100% (complete kill).

[3] = test system: velvetleaf (Abutilon theophrasti MEDIC.); experiment: Test Example 1: foliar treatment, growth inhibition rate, velvetleaf; assay type: in vivo; conditions: visually observed 17th to 23rd day after application
Description: as §1, §2

greenfoxtail = experiment: Test Example 2: soil application on the day after sowing, growth inhibition rate, greenfoxtail; assay type: in vivo, Setaria viridis L.; conditions: 250 g/ha active ingredient, observed on 19th to 24th day
Description: as §3

velvetleaf = experiment: Test Example 2: soil application on the day after sowing, growth inhibition rate, velvetleaf; assay type: in vivo, Abutilon theophrasti MEDIC.; conditions: 250 g/ha active ingredient, observed on 19th to 24th day
Description: as §3

[4] = test system: greenfoxtail (Setaria viridis L.); experiment: Test Example 1: foliar treatment, growth inhibition rate, greenfoxtail; assay type: in vivo; conditions: visually observed 17th to 23rd day after application
Description: as §1, §2

corn (Zea mays L.) = experiment: Test Example 1: foliar treatment, growth inhibition rate, corn; assay type: in vivo; conditions: visually observed 17th to 23rd day after application
Description: as §1, §2

[5] = test system: soybean (Glycine max Merr.); experiment: Test Example 1: foliar treatment, growth inhibition rate, soybean; assay type: in vivo; conditions: visually observed 17th to 23rd day after application
Description: as §1, §2

crabgrass = experiment: Test Example 2: soil application on the day after sowing, growth inhibition rate, crabgrass; assay type: in vivo, Digitaria sanguinalis L.; conditions: 250 g/ha active ingredient, observed on 19th to 24th day
Description: as §3

prickly sida = experiment: Test Example 2: soil application on the day after sowing, growth inhibition rate, prickly sida; assay type: in vivo, Sida spinosa L.; conditions: 250 g/ha active ingredient, observed on 19th to 24th day
Description: as §3

rice = experiment: Test Example 2: soil application on the day after sowing, growth inhibition rate, rice; assay type: in vivo, Oryza sativa L.; conditions: 250 g/ha active ingredient, observed on 19th to 24th day
Description: as §3

[6] = test system: prickly sida (Sida spinosa L.); experiment: Test Example 1: foliar treatment, growth inhibition rate, prickly sida; assay type: in vivo; conditions: visually observed 17th to 23rd day after application
Description: as §1, §2

soybean = experiment: Test Example 2: soil application on the day after sowing, growth inhibition rate, soybean; assay type: in vivo, Glycine max Merr.; conditions: 250 g/ha active ingredient, observed on 19th to 24th day
Description: as §3

barnyardgrass = experiment: Test Example 2: soil application on the day after sowing, growth inhibition rate, barnyardgrass; assay type: in vivo, Echinochloa crus-galli L.; conditions: 250 g/ha active ingredient, observed on 19th to 24th day
Description: as §3

redroot pigweed = experiment: Test Example 2: soil application on the day after sowing, growth inhibition rate, redroot pigweed; assay type: in vivo, Amaranthus retroflexus L.; conditions: 250 g/ha active ingredient, observed on 19th to 24th day
Description: as §3

wheat (Triticum spp.) = experiment: Test Example 1: foliar treatment, growth inhibition rate, wheat; assay type: in vivo; conditions: visually observed 17th to 23rd day after application
Description: as §1, §2

[7] = test system: redroot pigweed (Amaranthus retroflexus L.); experiment: Test Example 1: foliar treatment, growth inhibition rate, redroot pigweed; assay type: in vivo; conditions: visually observed 17th to 23rd day after application
Description: as §1, §2

| SMILES | Growth inhibition rate (%) Barnyardgrass ([1]; 31 g/ha active ingredient) | Growth inhibition rate (%) Rice (rice (Oryza sativa L.); 31 g/ha active ingredient) | Growth inhibition rate (%) Crabgrass ([2]; 31 g/ha active ingredient) | Growth inhibition rate (%) Corn (corn) | Growth inhibition rate (%) Velvetleaf ([3]; 31 g/ha active ingredient) | Growth inhibition rate (%) Greenfoxtail (greenfoxtail) | Growth inhibition rate (%) Velvetleaf (velvetleaf) | Growth inhibition rate (%) Greenfoxtail ([4]; 31 g/ha active ingredient) | Growth inhibition rate (%) Corn (corn (Zea mays L.); 31 g/ha active ingredient) | Growth inhibition rate (%) Soybean ([5]; 31 g/ha active ingredient) | Growth inhibition rate (%) Crabgrass (crabgrass) | Growth inhibition rate (%) Prickly sida (prickly sida) | Growth inhibition rate (%) Rice (rice) | Growth inhibition rate (%) Prickly sida ([6]; 31 g/ha active ingredient) | Growth inhibition rate (%) Soybean (soybean) | Growth inhibition rate (%) Barnyardgrass (barnyardgrass) | Growth inhibition rate (%) redroot pigweed (redroot pigweed) | Growth inhibition rate (%) Wheat (wheat (Triticum spp.); 31 g/ha active ingredient) | Growth inhibition rate (%) redroot pigweed ([7]; 31 g/ha active ingredient) | further results |
| --- | --- | --- | --- | --- | --- | --- | --- | --- | --- | --- | --- | --- | --- | --- | --- | --- | --- | --- | --- | --- |
| CCSC(=O)Oc1c(C(=O)c2ccc(S(C)(=O)=O)c(OCC(C)OC)c2C)cnn1C (stereo not shown) [compound 189] | 95% | 90% | 95% | 0% | 100% | 100% | 100% | 98% | 0% | 98% | 100% | 100% | 100% | 70% | 10% | 100% | 100% | – | – | – |
| CCSC(=O)Oc1c(C(=O)c2ccc(S(C)(=O)=O)c(CSC#N)c2C)cnn1C [compound 231] | – | – | – | 0% | – | 0% | 0% | – | – | – | 60% | 0% | 0% | – | 0% | 70% | 50% | – | – | Growth inhibition rate (%) Barnyardgrass ([1]; 63 g/ha active ingredient): 100%; Growth inhibition rate (%) Rice (rice (Oryza sativa L.); 63 g/ha active ingredient): 50%; Growth inhibition rate (%) Crabgrass ([2]; 63 g/ha active ingredient): 70%; Growth inhibition rate (%) Velvetleaf ([3]; 63 g/ha active ingredient): 80%; Growth inhibition rate (%) Wheat (wheat (Triticum spp.); 63 g/ha active ingredient): 0%; Growth inhibition rate (%) Greenfoxtail ([4]; 63 g/ha active ingredient): 40%; Growth inhibition rate (%) Corn (corn (Zea mays L.); 63 g/ha active ingredient): 0%; Growth inhibition rate (%) Soybean ([5]; 63 g/ha active ingredient): 100%; Growth inhibition rate (%) redroot pigweed ([7]; 63 g/ha active ingredient): 80%; Growth inhibition rate (%) Prickly sida ([6]; 63 g/ha active ingredient): 40% |
| COCCOc1c(S(C)(=O)=O)ccc(C(=O)c2cnn(C)c2OC(=O)SC)c1C [compound 233] | 100% | 80% | 100% | 0% | 100% | 100% | 100% | 100% | 0% | 100% | 100% | 40% | 100% | 60% | 50% | 100% | 100% | 0% | – | – |
| CCSC(=O)Oc1c(C(=O)c2ccc(S(C)(=O)=O)c(S(C)(=O)=O)c2Cl)cnn1C [compound 224] | – | – | – | 10% | – | 98% | 70% | – | – | – | 100% | 75% | 98% | – | 50% | 100% | 100% | – | – | Growth inhibition rate (%) Barnyardgrass ([1]; 63 g/ha active ingredient): 95%; Growth inhibition rate (%) Rice (rice (Oryza sativa L.); 63 g/ha active ingredient): 20%; Growth inhibition rate (%) Crabgrass ([2]; 63 g/ha active ingredient): 60%; Growth inhibition rate (%) Velvetleaf ([3]; 63 g/ha active ingredient): 60%; Growth inhibition rate (%) Wheat (wheat (Triticum spp.); 63 g/ha active ingredient): 0%; Growth inhibition rate (%) Greenfoxtail ([4]; 63 g/ha active ingredient): 70%; Growth inhibition rate (%) Corn (corn (Zea mays L.); 63 g/ha active ingredient): 0%; Growth inhibition rate (%) Soybean ([5]; 63 g/ha active ingredient): 100%; Growth inhibition rate (%) redroot pigweed ([7]; 63 g/ha active ingredient): 95%; Growth inhibition rate (%) Prickly sida ([6]; 63 g/ha active ingredient): 70% |
| CCSC(=O)Oc1c(C(=O)c2ccc(S(C)(=O)=O)c(CS(C)(=O)=O)c2C)cnn1C [compound 72] | 80% | 50% | 50% | 0% | 60% | – | 30% | 70% | 10% | 70% | 0% | – | – | 60% | – | – | 50% | 0% | 60% | – |
| CCSC(=O)Oc1c(C(=O)c2ccc(S(C)(=O)=O)c(COC)c2Cl)cnn1C [compound 42] | 100% | 90% | 98% | 0% | 95% | – | 70% | 95% | 0% | 95% | 100% | – | – | 90% | – | – | 100% | 0% | 100% | – |
| CCSC(=O)Oc1c(C(=O)c2ccc(S(C)(=O)=O)c(OCC(F)(F)F)c2C)cnn1C [compound 79] | 100% | 60% | 100% | 0% | 98% | – | 50% | 98% | 50% | 100% | 90% | – | – | 75% | – | – | 90% | 0% | 100% | – |
| CCSC(=O)Oc1c(C(=O)c2ccc(S(C)(=O)=O)c(CCOC)c2C)cnn1C [compound 75] | 98% | 98% | 100% | 10% | 100% | – | 80% | 100% | 40% | 98% | 100% | – | – | 100% | – | – | 100% | 0% | 100% | – |
| CCSC(=O)Oc1c(C(=O)c2ccc(S(C)(=O)=O)c(OCCCl)c2C)cnn1C [compound 78] | 60% | 10% | 70% | 0% | 65% | – | 50% | 60% | 0% | 70% | 95% | – | – | 60% | – | – | 80% | 0% | 60% | – |
| CCSC(=O)Oc1c(C(=O)c2ccc(S(C)(=O)=O)c(COCCOC)c2C)cnn1C [compound 76] | 98% | 60% | 98% | 0% | 75% | – | 30% | 80% | 30% | 95% | 100% | – | – | 65% | – | – | 90% | 0% | 90% | – |
